According to patent publication US11382347B2, “Natural cooling formulations” (WM. WRIGLEY JR. COMPANY, priority 2015, dated 2022):

Assay: Sensory panel screening of natural coolants versus menthol in sugar solution (Example 1)
Assay type: in vivo, human
Details: 100 ppm in 5% sugar solution, 10 mL held 10 s, panel N=6; for Cooling Relative to 100 ppm Menthol: 9-point scale, menthol fixed as 5.0
Procedure: 100 ppm of naturally sourced menthyl lactate, menthyl succinate, and isopulegol were screened in 5% sugar solution for cooling and bitterness properties relative to 100 ppm menthol in 5% sucrose solution.
10 mL of each sample was orally evaluated by a panel (N=6) for 10 seconds, then expectorated. Cooling strength, flavor strength, and bitterness or off-taste was evaluated on a 9-point scale in comparison to 100 ppm menthol evaluated as a control, with 0 being the lowest and 9 being the highest measure on the scale. Subjects evaluated the coolant attributes at T0 (immediately after expectorating), 1, 2, 5 and 10 minute time points post expectoration.
Prior to the test, each subject calibrated their cooling and bitterness scale by performing the same evaluation on 10 mL of 100 ppm of L-menthol (prepared the same way as the natural coolants). The menthol solution was held in the mouth for 10 seconds as a calibration sample and the cooling strength and bitterness were fixed as 5.0 at the initial T0 time point.
Panelists were asked to rate the cooling and bitterness intensity of the compounds in solution, relative to the solution of 100 ppm of menthol, when tested in comparative screenings. The ratings are summarized in Table 1, showing the cooling and bitterness of the coolants compared to menthol.

## CC1CCC(C(C)C)C(O)C1 (centres unmarked) [Menthol (Control), menthol, reference compound]
  Bitterness Relative to 100 ppm Menthol: 1.0
  Cooling Relative to 100 ppm Menthol: 1.0

## C=C(C)C1CCC(C)CC1O (centres unmarked) [Natural Isopulegol, isopulegol]
  Bitterness Relative to 100 ppm Menthol: 0.8
  Cooling Relative to 100 ppm Menthol: 0.7

## CC1CCC(C(C)C)C(OC(=O)C(C)O)C1 (centres unmarked) [Natural Menthyl Lactate, menthyl lactate]
  Bitterness Relative to 100 ppm Menthol: 1.7
  Cooling Relative to 100 ppm Menthol: 1.1

## CC1CCC(C(C)C)C(OC(=O)CCC(=O)O)C1 (centres unmarked) [Natural Menthyl Succinate, mono-menthyl succinate]
  Bitterness Relative to 100 ppm Menthol: 0.8
  Cooling Relative to 100 ppm Menthol: 0.6
